Experimental data reported in patent publication US20240132484A1, “BROAD SPECTRUM ANTIVIRAL COMPOUNDS TARGETING THE SKI COMPLEX” (priority 2020, published 2024).
“And” between values parts separate entries of the source, which are not always exact repeats. Equal entries are not always repeated. Where two headings read alike, the source gives them in different places.

Columns and labels:
cells (nuclei count) = details: for Relative cell count to DMSO controls, Average 1 μM / Relative cell count to DMSO controls, Average 5 μM / Relative cell count to DMSO controls, Average 10 μM / Relative cell count to DMSO controls, Average 25 μM / Relative cell count to DMSO controls, Average 50 μM: toxicity data, 100=DMSO control; for Relative cell count to DMSO controls, Average (for correlation analysis): average value over the 5 tested concentrations (1 to 50 uM)
SARS2 = format: cell-based, SARS-CoV-2; details: for Percentage Infection Relative to Appropriate DMSO Control with Avg Background Subtraction: single well; for Percentage Inhibition Average 1 μM / Screening data (Relative infection to DMSO controls) Average 1 μM: SARS2, 1 μM; for Screening data (Relative infection to DMSO controls) Average 1 μM / Screening data (Relative infection to DMSO controls) Average 5 μM / Screening data (Relative infection to DMSO controls) Average 10 μM / Screening data (Relative infection to DMSO controls) Average 25 μM / Screening data (Relative infection to DMSO controls) Average 50 μM / Average (relative infection to DMSO over the 5 tested concentrations): 100=DMSO control; for Percentage Inhibition Average 5 μM / Screening data (Relative infection to DMSO controls) Average 5 μM: SARS2, 5 μM; for Percentage Inhibition Average 10 μM / Screening data (Relative infection to DMSO controls) Average 10 μM: SARS2, 10 μM; for Percentage Inhibition Average 25 μM / Screening data (Relative infection to DMSO controls) Average 25 μM: SARS2, 25 μM; for Percentage Inhibition Average 50 μM / Screening data (Relative infection to DMSO controls) Average 50 μM: SARS2, 50 μM; for Average (relative infection to DMSO over the 5 tested concentrations): SARS2, average over 1 to 50 uM

## CCN(CC)CCN(Cc1ccccc1)Cc1ccc(C)o1 [SILCS23]
Cells (nuclei count)
  Relative cell count to DMSO controls, Average 1 μM: 123.69
  Relative cell count to DMSO controls, Average 5 μM: 129.2
  Relative cell count to DMSO controls, Average 10 μM: 125.61
  Relative cell count to DMSO controls, Average 25 μM: 112.58
  Relative cell count to DMSO controls, Average 50 μM: 92.88
  Relative cell count to DMSO controls, Average (for correlation analysis): 116.79
Cells (nuclei count); Average of Exp 1-3, n 9, 1 uM
  Toxicity Data, Average, Mean: 123.69%
Cells (nuclei count); Average of Exp 1-3, n 9, 5 uM
  Toxicity Data, Average, Mean: 129.20%
Cells (nuclei count); Average of Exp 1-3, n 9, 10 uM
  Toxicity Data, Average, Mean: 125.61%
Cells (nuclei count); Average of Exp 1-3, n 9, 25 uM
  Toxicity Data, Average, Mean: 112.58%
Cells (nuclei count); Average of Exp 1-3, n 9, 50 uM
  Toxicity Data, Average, Mean: 92.88%
SARS2; Average of Exp 1-3, n 9, 1 uM
  Infection Data, Average, Mean: 83.26%
SARS2; Average of Exp 1-3, n 9, 5 uM
  Infection Data, Average, Mean: 72.94%
SARS2; Average of Exp 1-3, n 9, 10 uM
  Infection Data, Average, Mean: 71.95%
SARS2; Average of Exp 1-3, n 9, 25 uM
  Infection Data, Average, Mean: 42.51%
SARS2; Average of Exp 1-3, n 9, 50 uM
  Infection Data, Average, Mean: 25.76%
SARS2; Exp 1 (SMW475), 1 uM
  Percentage Infection Relative to Appropriate DMSO Control with Avg Background Subtraction: 84.61% and 99.83% and 96.53%
SARS2; Exp 1 (SMW475), 5 uM
  Percentage Infection Relative to Appropriate DMSO Control with Avg Background Subtraction: 76.20% and 84.17% and 85.48%
SARS2; Exp 1 (SMW475), 10 uM
  Percentage Infection Relative to Appropriate DMSO Control with Avg Background Subtraction: 57.63% and 66.75% and 71.82%
SARS2; Exp 1 (SMW475), 25 uM
  Percentage Infection Relative to Appropriate DMSO Control with Avg Background Subtraction: 23.73% and 16.03% and 21.54%
SARS2; Exp 1 (SMW475), 50 uM
  Percentage Infection Relative to Appropriate DMSO Control with Avg Background Subtraction: 11.05% and 12.93% and 12.05%
SARS2; Exp 2 (SMW477), 1 uM
  Percentage Infection Relative to Appropriate DMSO Control with Avg Background Subtraction: 76.88% and 82.87% and 95.55%
SARS2; Exp 2 (SMW477), 5 uM
  Percentage Infection Relative to Appropriate DMSO Control with Avg Background Subtraction: 77.18% and 66.56% and 59.07%
SARS2; Exp 2 (SMW477), 10 uM
  Percentage Infection Relative to Appropriate DMSO Control with Avg Background Subtraction: 81.53% and 45.87% and 61.92%
SARS2; Exp 2 (SMW477), 25 uM
  Percentage Infection Relative to Appropriate DMSO Control with Avg Background Subtraction: 42.76% and 36.42% and 27.04%
SARS2; Exp 2 (SMW477), 50 uM
  Percentage Infection Relative to Appropriate DMSO Control with Avg Background Subtraction: 22.07% and 19.29% and 19.84%
SARS2; Exp 3 (SMW478), 1 uM
  Percentage Infection Relative to Appropriate DMSO Control with Avg Background Subtraction: 74.83% and 73.82% and 64.40%
SARS2; Exp 3 (SMW478), 5 uM
  Percentage Infection Relative to Appropriate DMSO Control with Avg Background Subtraction: 80.66% and 70.90% and 56.23%
SARS2; Exp 3 (SMW478), 10 uM
  Percentage Infection Relative to Appropriate DMSO Control with Avg Background Subtraction: 84.08% and 95.62% and 82.31%
SARS2; Exp 3 (SMW478), 25 uM
  Percentage Infection Relative to Appropriate DMSO Control with Avg Background Subtraction: 59.17% and 74.77% and 81.13%
SARS2; Exp 3 (SMW478), 50 uM
  Percentage Infection Relative to Appropriate DMSO Control with Avg Background Subtraction: 42.28% and 47.99% and 44.36%
SARS2
  Percentage Inhibition Average 1 μM: 16.74%
  Screening data (Relative infection to DMSO controls) Average 1 μM: 83.26
  Percentage Inhibition Average 5 μM: 27.06%
  Screening data (Relative infection to DMSO controls) Average 5 μM: 72.94
  Percentage Inhibition Average 10 μM: 28.05%
  Screening data (Relative infection to DMSO controls) Average 10 μM: 71.95
  Percentage Inhibition Average 25 μM: 57.49%
  Screening data (Relative infection to DMSO controls) Average 25 μM: 42.51
  Percentage Inhibition Average 50 μM: 74.24%
  Screening data (Relative infection to DMSO controls) Average 50 μM: 25.76
  Average (relative infection to DMSO over the 5 tested concentrations): 59.28

## COc1ccc(-c2[nH]ncc2C(=O)NCC2CCCCC2)cc1OC [SILCS52]
Cells (nuclei count)
  Relative cell count to DMSO controls, Average 1 μM: 103.3
  Relative cell count to DMSO controls, Average 5 μM: 97.63
  Relative cell count to DMSO controls, Average 10 μM: 97.92
  Relative cell count to DMSO controls, Average 25 μM: 94.91
  Relative cell count to DMSO controls, Average 50 μM: 81.04
  Relative cell count to DMSO controls, Average (for correlation analysis): 94.96
SARS2
  Percentage Inhibition Average 1 μM: 7.72%
  Screening data (Relative infection to DMSO controls) Average 1 μM: 92.28
  Percentage Inhibition Average 5 μM: −17.76%
  Screening data (Relative infection to DMSO controls) Average 5 μM: 117.76
  Percentage Inhibition Average 10 μM: −4.43%
  Screening data (Relative infection to DMSO controls) Average 10 μM: 104.43
  Percentage Inhibition Average 25 μM: −20.98%
  Screening data (Relative infection to DMSO controls) Average 25 μM: 120.98
  Percentage Inhibition Average 50 μM: −22.98%
  Screening data (Relative infection to DMSO controls) Average 50 μM: 122.98
  Average (relative infection to DMSO over the 5 tested concentrations): 111.69
